Test results published in patent publication US10894817B2, “Fatty acid modified urocortin-2 analogs for the treatment of diabetes and chronic kidney disease” (priority 2016, dated 2021).
Marks after values point to notes of the source that are not given here. Starred links: 1 amine or outer side, 2 acyl side, 3 side chain; linkers in the order of their positions; H or OH if unused. Residues, ends and D or L forms follow the SMILES beside them. Groups on a side chain read outwards from the residue. *: point of attachment. C18 diacid = O=C(O)CCCCCCCCCCCCCCCCC(=O)*; γGlu = O=C(O)[C@H](CCC(=O)[*:2])N[*:1]; AEEA = NCCOCCOCC(=O)O

Columns and labels:
[1] = system: UniNx db/db AAV renin mice; experiment: Uninephrectomized db/db AAV renin model of diabetic nephropathy; format: in vivo
Procedure: The uninephrectomized db/db adeno-associated viral (AAV) renin model represents a progressive model of diabetic kidney disease with hypertension driven by an AAV renin transgene (Am J Physiol Regul Integr Comp Physiol. 309(5):R467-74, (2015)).
The uninephrectomy (UniNx) surgery on female db/db mice on a C57BLKS/J background (obtained from Harlan Laboratories) is performed by Harlan Laboratories at 4 weeks of age with removal of the right kidney to accelerate the diabetic kidney disease. Animals are received at 5 weeks of age and housed in micro-isolator cages at 3 mice per cage and are on a 12 hour light/dark cycle. All db/db mice are fed ad libitum with Purina special diet 5008 and allowed free access to autoclaved water.
Mice are acclimated for 7 weeks prior to administration of AAV Renin (5×10^9 GC) intravenously by the retro-orbital sinus to induce persistent hypertension. Randomization by urine albumin to creatinine ratio (ACR), blood glucose and body weight is done at 15 weeks of age (a point at which renal disease and pathology are established in this model based on observations) into 2 groups of 12 saline control mice and 33 mice to receive Lisinopril treatment.
Dosing with Lisinopril (30 mg/L) begins at 16 weeks of age. After 2 weeks of Lisinopril treatment, the 33 mice are randomized by urine ACR, blood glucose and body weight into 4 groups (one group of 9 mice and 3 groups of 8 mice).
In the 4 groups of UniNx db/db AAV renin mice receiving Lisinopril treatment, either 0.9% physiological saline for injection (“saline control” N=9) or different dose levels of Example 4 (7.2, 24 or 72 nmol/kg, N=8 per dose level) are dosed at 0.2 mL s.c. per injection beginning at 18 weeks of age and continued 3 times weekly for 12 weeks. Albumin and creatinine are measured in urine with a Roche Hitachi Modular Analytics P analyzer with Roche reagents for detection of albumin and creatinine.
For all the groups, the parameters measured are body weight, kidney weight, heart weight, urine albumin to creatinine ratio, serum creatinine and renal pathology scores for mesangial matrix expansion, glomerular fibrosis, tubular regeneration, interstitial inflammation and interstitial fibrosis.
At 15 and 27 weeks of age, blood (30 to 50 uL) from all the UniNx db/db AAV Renin mice is obtained from the tail vein and dropped onto a Precision PCx blood glucose sensor electrode strip (Abbott Laboratories) for blood glucose determination with a MediSense Precision PCx glucometer (Abbott Laboratories). Blood glucose data is used to block the UniNx db/db mice into equivalent groups. Body weight is determined at baseline and at termination with a Metler Toledo Balance. The heart and kidney are removed at necropsy and weighed on a Metler Toledo Balance. Blood (500 ul) is collected from the retro-orbital sinus at termination under isoflurane anesthesia. The clotted blood is centrifuged to obtain serum. Serum is analyzed for creatinine on a Roche Hitachi Modular Analytics P analyzer with reagents from Roche.
Urine is collected by a spot collection method to collect urine over a 2-4 hr time period. An individual mouse is placed on top of a 96 well polypropylene microplate and then covered by a Plexiglas chamber with holes for breathing but no access to food or water. At the end of the time period, the urine is removed from the plate with a micropipette and placed on ice, centrifuged and subjected to albumin and creatinine analysis. Urine albumin, creatinine and glucose are determined on a Roche Hitachi Modular Analytics P analyzer. Urine creatinine is determined with the Creatinine Plus reagent by Roche. For urine albumin, the Roche Microalbumin assay is modified to adapt the calibration curve for measuring urine albumin in mice. Albuminuria was defined as albumin to creatinine ratio (ACR).
Kidneys are removed at study termination, fixed in formalin and processed for paraffin sectioning according to standard methodology. […]

human CRHR2b = target: T1, human CRHR2b (Homo sapiens, UniProt Q13324); experiment: human CRHR2b cell-based cAMP assay; details: cAMP assay, CHO cells transfected with human CRHR2b; mean ± SEM of runs; read-out: hCRHR2b Average EC50
T1 construct: expressed in transfected cells; host or cells: Chinese Hamster Ovary (CHO) cells, transient transfection
T1 sequence (Q13324 1-438 isoform Q13324-2): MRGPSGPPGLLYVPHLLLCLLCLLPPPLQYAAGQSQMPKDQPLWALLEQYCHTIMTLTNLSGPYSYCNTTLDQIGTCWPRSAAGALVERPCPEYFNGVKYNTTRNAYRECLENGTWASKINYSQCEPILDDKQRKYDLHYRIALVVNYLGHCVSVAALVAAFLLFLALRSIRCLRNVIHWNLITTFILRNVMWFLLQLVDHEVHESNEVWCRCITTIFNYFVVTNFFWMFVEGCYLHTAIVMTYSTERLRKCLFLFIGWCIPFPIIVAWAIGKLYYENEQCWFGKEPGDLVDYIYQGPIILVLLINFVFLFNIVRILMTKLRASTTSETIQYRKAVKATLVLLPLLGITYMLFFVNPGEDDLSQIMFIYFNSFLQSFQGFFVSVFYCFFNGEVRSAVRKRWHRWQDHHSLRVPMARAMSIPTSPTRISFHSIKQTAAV
In short: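 ED50 values are means ± SEM over several runs, curve-fitted from cAMP in pmol, calibrated against unlabeled-cAMP standards. Detection was HTRF competition, ratio 665/620 nm, after 30 min agonist exposure at 37 °C.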

[2] = Pharmacokinetics, single subcutaneous dose, mice; details: male, CD-1, mouse, plasma, sc, 388 nmol/kg
[3] = Lisinopril plus Saline, after 12 weeks, scale none (0) to severe (5)
[4] = UniNx db/db AAV renin mice, Lisinopril plus Saline, after 12 weeks
[5] = UniNx db/db AAV renin mice, Lisinopril plus Saline, baseline

SMILES: NCCCC[C@H](N[C@@H](CCc1ccccc1)C(=O)O)C(=O)N1CCC[C@H]1C(=O)O [Lisinopril]
- Glomerular Fibrosis, pathology score [1, 3]: 1.4 ± 0.2 ^a
- Interstitial Fibrosis, pathology score [1, 3]: 2.0 ± 0.3 ^
- Interstitial Inflammation, pathology score [1, 3]: 1.1 ± 0.3 ^a
- Mesangial Matrix Expansion, pathology score [1, 3]: 2.1 ± 0.1 ^a
- Tubular Regeneration, pathology score [1, 3]: 2.0 ± 0.2 ^a
- Albumin to Creatinine Ratio (ACR) ([1]; Lisinopril plus Saline, week 0 of treatment with Example 4): 15203 ± 2835 ^
- Albumin to Creatinine Ratio (ACR) ([1]; Lisinopril plus Saline, week 1): 16491 ± 3362 ^
- Albumin to Creatinine Ratio (ACR) ([1]; Lisinopril plus Saline, week 2): 16160 ± 4162 ^a
- Albumin to Creatinine Ratio (ACR) ([1]; Lisinopril plus Saline, week 3): 13069 ± 3295 ^a
- Albumin to Creatinine Ratio (ACR) ([1]; Lisinopril plus Saline, week 6): 11584 ± 3132 ^a
- Albumin to Creatinine Ratio (ACR) ([1]; Lisinopril plus Saline, week 8): 12484 ± 4626 ^a
- Albumin to Creatinine Ratio (ACR) ([1]; Lisinopril plus Saline, week 10): 20429 ± 4998 ^a
- Albumin to Creatinine Ratio (ACR) ([1]; Lisinopril plus Saline, week 12): 19075 ± 6268 ^a
- deaths over the course of the study ([1]; Lisinopril plus saline group (N=9)): 2
- Final Blood Glucose [1, 4]: 466 mg/dL
- Final Body Weight [1, 4]: 61.8 g
- Heart Weight [1, 4]: 227 mgs
- Kidney Weight [1, 4]: 392 mgs
- Serum Creatinine [1, 4]: 0.130 mg/dL
- Initial Blood Glucose [1, 5]: 444 mg/dL
- Initial Body Weight [1, 5]: 61.6 g

SMILES: CC[C@H](C)[C@H](NC(C)=O)C(=O)N[C@H](C(=O)N[C@@H](CC(C)C)C(=O)N[C@@H](CO)C(=O)N[C@@H](CC(C)C)C(=O)N[C@@H](CC(=O)O)C(=O)N[C@H](C(=O)N1CCC[C@H]1C(=O)N[C@H](C(=O)NCC(=O)N[C@@H](CC(C)C)C(=O)N[C@@H](CC(C)C)C(=O)N[C@@H](CCC(N)=O)C(=O)N[C@H](C(=O)N[C@@H](CC(C)C)C(=O)N[C@@H](CC(C)C)C(=O)N[C@@H](CCC(=O)O)C(=O)N[C@@H](CCC(N)=O)C(=O)N[C@@H](CCC(=O)O)C(=O)N[C@@H](CCCCN)C(=O)N[C@@H](CCC(N)=O)C(=O)N[C@@H](CCC(=O)O)C(=O)N[C@@H](CCCCN)C(=O)N[C@@H](CCC(=O)O)C(=O)N[C@@H](CCCCN)C(=O)N[C@@H](CCC(N)=O)C(=O)N[C@@H](CCC(N)=O)C(=O)N[C@@H](C)C(=O)N[C@@H](CCCCNC(=O)COCCOCCNC(=O)COCCOCCNC(=O)CC[C@H](NC(=O)CC[C@H](NC(=O)CCCCCCCCCCCCCCCCC(=O)O)C(=O)O)C(=O)O)C(=O)N[C@H](C(=O)N[C@@H](CC(N)=O)C(=O)N[C@@H](C)C(=O)N[C@@H](CCC(N)=O)C(=O)N[C@H](C(=O)N[C@@H](CC(C)C)C(=O)N[C@@H](C)C(=O)N[C@@H](CCC(N)=O)C(=O)N[C@H](C(N)=O)C(C)C)[C@@H](C)CC)[C@@H](C)O)[C@@H](C)CC)[C@@H](C)CC)C(C)C)C(C)C [Example 1] (Ac-IVLSLDVPIGLLQILLEQEKQEKEKQQAK([AEEA-AEEA-γGlu-γGlu-C18 diacid])TNAQILAQV-NH2)
- EC50 (human CRHR2b): 2.44 ± 1.36 nM
- AUC(0-inf) [2]: 32.2 µM·h
- CL/F [2]: 0.202 mL/min/kg
- Cmax [2]: 1150 nM
- Tmax [2]: 12 h
- half-life [2]: 16 h
